Test results published in ChEMBL document CHEMBL4842342, “Amidoxime prodrugs convert to potent cell-active multimodal inhibitors of the dengue virus protease” (Eur J Med Chem, 2021).
Active and inactive are the calls of the source. No cut-off for these calls is given here.

Tests used:
dengue virus type 2 [1] = assay: Antiviral activity against Dengue virus 2 measured at 48 hrs post-infection; format: functional, organism-based
Genome polyprotein = Genome polyprotein (dengue virus type 2, UniProt P29990); assay: Inhibition of DENV2 NS2B-NS3 protease
[2] = Cytotoxicity against human Huh-7 cells assessed as reduction in cell viability; format: cell-based
dengue virus type 2 [3] = assay: Antiviral activity against Dengue virus 2 EDEN2 infected in human Huh-7 cells; format: functional, organism-based; conditions: EDEN2, Huh-7
[4] = Cytotoxicity against human PBMC assessed as reduction in cell viability
dengue virus type 2 [5] = assay: Antiviral activity against DENV2 D2Y10 virus infected in human PBMC cells in presence of 4G2 antibody; format: functional, organism-based
Zika virus = assay: Antiviral activity against Zika virus; format: functional, organism-based
[6] = target: Genome polyprotein (dengue virus type 2) (UniProt P29990); assay: Inhibition of DENV2 NS2B-NS3 protease up to 200 uM; conditions: dose microM <=200
dengue virus type 2 [7] = assay: Antiviral activity against DENV2 infected in human Huh-7 cells assessed as log reduction in extracellular viral RNA synthesis at 10 uM treated at 6 hrs post-viral infection and measured after 48 hrs by real time RT-PCR method; format: functional
[8] = target: Genome polyprotein (dengue virus type 2) (UniProt P29990); assay: Inhibition of NS2B-NS3 protease in DENV2 infected in human Huh-7 cells assessed as inhibition of NS3 internal cleavage site at 10 uM treated 6 hrs […] viral infection and measured at 30 hrs post-infection by western blot analysis; format: cell-based; conditions: time 24.0 hrs
dengue virus type 2 [9] = assay: Antiviral activity against DENV2 infected in human Huh-7 cells assessed as log reduction in intracellular viral RNA synthesis at 10 uM treated at 6 hrs post-viral infection and measured after 12 hrs by real time RT-PCR method; format: functional
dengue virus type 2 [10] = assay: Antiviral activity against DENV2 infected in human Huh-7 cells assessed as viral infection rate at 10 uM treated at 6 hrs post-viral infection and measured at 30 hrs post-infection by confocal microscopy (reference value: 50 to 60%); format: functional; conditions: time 24 hrs
dengue virus type 2 [11] = assay: Antiviral activity against DENV2 infected in human Huh-7 cells assessed as reduction in intracellular viral RNA synthesis at 10 uM treated at 6 hrs post-viral infection and measured after 48 hrs by real time RT-PCR method; format: functional, organism-based
dengue virus type 2 [12] = assay: Antiviral activity against DENV2 infected in human Huh-7 cells assessed as log reduction in intracellular viral RNA synthesis at 10 uM treated at 6 hrs post-viral infection and measured after 38 hrs by real time RT-PCR method; format: functional
dengue virus type 2 [13] = assay: Antiviral activity against Dengue virus 2 infected in human A549 cells assessed as reduction in viral titer production measured after 48 hrs by plaque reduction assay; format: functional, organism-based; conditions: A549, 48 h
[14] = Dengue virus, 48 h, read-out: EC50

Compound | EC50 (dengue virus type 2 [1]; [14]) [µM] | other results
COc1cccc(S(=O)(=O)n2c3ccc(-c4cccc(C(=N)N)c4)cc3c3cc(-c4cccc(C(=N)N)c4)ccc32)c1 | 26.2 | IC50 (Genome polyprotein; read-out: IC50): 4.5 µM
COc1ccc(S(=O)(=O)n2c3ccc(-c4cccc(C(=N)N)c4)cc3c3cc(-c4cccc(C(=N)N)c4)ccc32)cc1 | 9.5 | IC50 (Genome polyprotein; read-out: IC50): 6.6 µM
N=C(N)c1cccc(-c2ccc3c(c2)c2cc(-c4cccc(C(=N)N)c4)ccc2n3Cc2cccc(Br)c2)c1 | – | CC50 [2]: 100 µM; EC50 (dengue virus type 2 [3]): 16.4 µM; CC50 [4]: > 100 µM; EC50 (dengue virus type 2 [5]): 48.1 µM
N/C(=N\O)c1cccc(-c2ccc3c(c2)c2cc(-c4cccc(/C(N)=N/O)c4)ccc2n3S(=O)(=O)c2ccc(C(F)(F)F)cc2)c1 | 4.9 | –
N/C(=N\O)c1cccc(-c2ccc3c(c2)c2cc(-c4cccc(/C(N)=N/O)c4)ccc2n3Cc2ccc3c(c2)OCO3)c1 | 5 | –
N/C(=N\O)c1cccc(-c2ccc3c(c2)c2cc(-c4cccc(/C(N)=N/O)c4)ccc2n3CC(O)CS(=O)(=O)c2cccc(F)c2)c1 (centres undefined) | 8.7 | –
COc1ccc(S(=O)(=O)n2c3ccc(-c4cccc(/C(N)=N/O)c4)cc3c3cc(-c4cccc(/C(N)=N/O)c4)ccc32)cc1C | 3.1 | –
COc1cccc(Cn2c3ccc(-c4cccc(/C(N)=N/O)c4)cc3c3cc(-c4cccc(/C(N)=N/O)c4)ccc32)c1 | 1.8 | EC50 (Zika virus): 8.7 µM; inhibition [6]: inactive
COc1ccc(Cn2c3ccc(-c4cccc(/C(N)=N/O)c4)cc3c3cc(-c4cccc(/C(N)=N/O)c4)ccc32)cc1F | 6.9 | –
Cc1ccccc1S(=O)(=O)n1c2ccc(-c3cccc(/C(N)=N/O)c3)cc2c2cc(-c3cccc(/C(N)=N/O)c3)ccc21 | 8.6 | –
CCn1c2ccc(-c3cccc(/C(N)=N/O)c3)cc2c2cc(-c3cccc(/C(N)=N/O)c3)ccc21 | 1.5 | –
N/C(=N\O)c1cccc(-c2ccc3c(c2)c2cc(-c4cccc(/C(N)=N/O)c4)ccc2n3S(=O)(=O)c2cccc3cccnc23)c1 | 8.5 | –
COc1ccc(S(=O)(=O)n2c3ccc(-c4cccc(/C(N)=N/O)c4)cc3c3cc(-c4cccc(/C(N)=N/O)c4)ccc32)cc1Br | 2.4 | –
COc1ccc(F)cc1S(=O)(=O)n1c2ccc(-c3cccc(/C(N)=N/O)c3)cc2c2cc(-c3cccc(/C(N)=N/O)c3)ccc21 | 2.8 | –
COc1ccc(Br)cc1S(=O)(=O)n1c2ccc(-c3cccc(/C(N)=N/O)c3)cc2c2cc(-c3cccc(/C(N)=N/O)c3)ccc21 | 4.9 | –
CN(C)CCCn1c2ccc(-c3cccc(/C(N)=N/O)c3)cc2c2cc(-c3cccc(/C(N)=N/O)c3)ccc21 | – | EC50 (dengue virus type 2 [1]): Not Active
N/C(=N\O)c1cccc(-c2ccc3c(c2)c2cc(-c4cccc(/C(N)=N/O)c4)ccc2n3Cc2ccc(F)cc2)c1 | 8.1 | –
COc1ccc(S(=O)(=O)n2c3ccc(-c4cccc(/C(N)=N/O)c4)cc3c3cc(-c4cccc(/C(N)=N/O)c4)ccc32)c(OC)c1 | 1.8 | –
N/C(=N\O)c1cccc(-c2ccc3c(c2)c2cc(-c4cccc(/C(N)=N/O)c4)ccc2n3S(=O)(=O)c2ccc(Br)cc2)c1 | 5.4 | –
N/C(=N\O)c1cccc(-c2ccc3c(c2)c2cc(-c4cccc(/C(N)=N/O)c4)ccc2n3Cc2ccc(Br)c(F)c2)c1 | 1.4 | –
COc1ccc(OC)c(S(=O)(=O)n2c3ccc(-c4cccc(/C(N)=N/O)c4)cc3c3cc(-c4cccc(/C(N)=N/O)c4)ccc32)c1 | 5.1 | –
COc1cccc(S(=O)(=O)n2c3ccc(-c4cccc(/C(N)=N/O)c4)cc3c3cc(-c4cccc(/C(N)=N/O)c4)ccc32)c1 | 8.7 | log(activity) (dengue virus type 2 [7]): 2; inhibition [8]: Active; log(activity) (dengue virus type 2 [9]): 1; Activity (dengue virus type 2 [10]): 30%; Activity (dengue virus type 2 [11]): inactive; Activity (dengue virus type 2 [12]): inactive; IC50 (Genome polyprotein): Not Active
N/C(=N\O)c1cccc(-c2ccc3c(c2)c2cc(-c4cccc(/C(N)=N/O)c4)ccc2n3Cc2cc(F)cc(Br)c2)c1 | 1.5 | –
N/C(=N\O)c1cccc(-c2ccc3c(c2)c2cc(-c4cccc(/C(N)=N/O)c4)ccc2n3S(=O)(=O)c2cccc(F)c2)c1 | 3.1 | –
O=C1C=C/C(=N/Nc2ccc([N+](=O)[O-])cc2Cl)C=C1C(=O)Nc1cccc(Cl)c1 | – | EC50 (dengue virus type 2 [13]): 0.81 µM
